# Legend:
# [1] = test system: Mac-1 (αMβ2)–CD40L interaction; assay: cell-free Mac-1–CD40L binding inhibition assay; design: species or system human; details: compared with CD40–CD40L activity; Figure S1
# [2] = biological target: human CD40–CD40L interaction (Homo sapiens, UniProt P29965)
# [3] = test system: Salmonella typhimurium TA-100; assay: Muta-Chromplate mutagenicity assay; details: S. typhimurium TA-100; concentrations tested of up to 500 µM; Figure S4
# [4] = test system: THP-1 human myeloid cells; details: THP-1 cells, 0.5 µg/mL MegaCD40L, 48 h; Figure S2
# [5] = water solubility; type: physicochemical; details: distilled water, Estimated water solubility, saturated solution
# [6] = test system: Balb/c skin allografts in C57BL/6 mice; details: two week treatment, 30 mg/kg daily s.c. in 20% HPβCD
# [7] = test system: THP-1 human myeloid cells; assay: MTT cytotoxicity assay; type: cell-based; details: THP-1 cells, 48 h; concentrations of up to 100 and 200 µM; Figure S3
# Sequence of human CD40–CD40L interaction (P29965 113-261 limits assumed): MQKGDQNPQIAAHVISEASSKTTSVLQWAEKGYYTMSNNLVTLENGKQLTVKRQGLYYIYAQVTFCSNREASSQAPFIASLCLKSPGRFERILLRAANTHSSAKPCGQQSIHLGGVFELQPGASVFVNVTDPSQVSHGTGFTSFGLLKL
Structure (SMILES),increase of inhibitory potency in Mac-1–CD40L assay [1],genotoxic potential (Ames test) [3],effect on CD40L-induced MHC-II upregulation [4],also measured
"O=C(Nc1ccc2c(O)c(/N=N/c3ccc(N=Nc4ccc(S(=O)(=O)O)cc4)cc3S(=O)(=O)O)c(S(=O)(=O)O)cc2c1)Nc1ccc2c(O)c(/N=N/c3ccc(N=Nc4ccc(S(=O)(=O)O)cc4)cc3S(=O)(=O)O)c(S(=O)(=O)O)cc2c1 (stereo in doubt) [Compound 1, direct red 80, reference compound]",about 10 fold,–,–,ligand efficiency (LE) ([2]; binding free energy per non-hydrogen atom): 0.4 kJ/atom
"O=C(Nc1ccc(-c2ccc(C(=O)Nc3cccc4cccc(S(=O)(=O)O)c34)cc2)cc1)c1ccc([N+](=O)[O-])cc1 [Compound 6, 8-(4’-(4-Nitrobenzamido)biphenyl-4-ylcarboxamido)naphthalene-1-sulfonic acid]",–,neither of these compounds was found to have genotoxic potential,concentration-dependently inhibited,–
"Nc1ccc(C(=O)Nc2ccc(-c3ccc(C(=O)Nc4cccc5cccc(S(=O)(=O)O)c45)cc3)cc2)cc1 [Compound 8, 8-(4’-(4-Aminobenzamido)biphenyl-4-ylcarboxamido)naphthalene-1-sulfonic acid]",about 10 fold,–,–,–
"COC(=O)c1ccc(C(=O)Nc2ccc(-c3ccc(C(=O)Nc4cccc5cccc(S(=O)(=O)O)c45)cc3)cc2)cc1 [Compound 10, 8-(4’-(4-(Methoxycarbonyl)benzamido)biphenyl-4-ylcarboxamido)naphthalene-1-sulfonic acid]",–,neither of these compounds was found to have genotoxic potential,concentration-dependently inhibited,solubility [5]: 164 µg/mL; toxicity during chronic treatment [6]: no signs of toxicity
"O=C(Nc1ccc(-c2ccc(C(=O)Nc3ccc(C(=O)O)c4ccccc34)cc2)cc1)c1ccc([N+](=O)[O-])cc1 [Compound 11, 4-(4’-(4-Nitrobenzamido)biphenyl-4-ylcarboxamido)-1-naphthoic acid]",–,–,concentration-dependently inhibited,"cytotoxicity (MTT, viability) [7]: significant effect on viability at 100 µM"
CSCC[C@H](NC(=O)[C@@H](NC(=O)[C@H](Cc1ccc(O)cc1)NC(=O)[C@H](Cc1ccc(O)cc1)NC(=O)CNC(=O)[C@H](CCCCN)NC(=O)[C@H](CCCCN)NC(=O)[C@H](C)NC(=O)[C@H](Cc1c[nH]c2ccccc12)NC(=O)[C@H](CCC(N)=O)NC(=O)[C@H](CC(C)C)NC(=O)[C@@H](N)C(C)C)[C@@H](C)O)C(=O)N[C@@H](CCCCN)C(=O)N[C@@H](CO)C(=O)N[C@@H](CC(N)=O)C(=O)O [mouse KGYY15],–,–,–,"CD40 IC50 ([2]; cell-free, soluble CD40L binding to plate-coated CD40, Hill slope 1 fit): no inhibitory activity"

# Source: paper PMC5823691 (Journal of medicinal chemistry, 2017)
